In article PMC10644263 (Biochemistry, 2020):
Values joined by “and” are separate entries in the source; they are usually repeats but may differ in a detail not shown here. Identical values can stand only once.

Tests used:
HpMTAN = molecular target: T1, HpMTAN (Helicobacter pylori, UniProt Q9ZMY2); test: Inhibition of HpMTAN; format: biochemical; settings: 37 °C
T1 sequence (Q9ZMY2 1-230): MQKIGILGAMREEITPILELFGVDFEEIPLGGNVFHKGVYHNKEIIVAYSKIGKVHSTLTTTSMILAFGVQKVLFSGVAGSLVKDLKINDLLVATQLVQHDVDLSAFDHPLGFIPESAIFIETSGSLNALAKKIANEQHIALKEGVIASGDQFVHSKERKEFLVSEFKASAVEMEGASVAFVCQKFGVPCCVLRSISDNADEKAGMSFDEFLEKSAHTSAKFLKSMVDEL

SaMTAN = molecular target: T2, SaMTAN (Staphylococcus aureus, UniProt Q5HFG2); test: Inhibition of SaMTAN; format: biochemical; settings: 37 °C, compared with MTDIA
T2 sequence (Q5HFG2 1-228): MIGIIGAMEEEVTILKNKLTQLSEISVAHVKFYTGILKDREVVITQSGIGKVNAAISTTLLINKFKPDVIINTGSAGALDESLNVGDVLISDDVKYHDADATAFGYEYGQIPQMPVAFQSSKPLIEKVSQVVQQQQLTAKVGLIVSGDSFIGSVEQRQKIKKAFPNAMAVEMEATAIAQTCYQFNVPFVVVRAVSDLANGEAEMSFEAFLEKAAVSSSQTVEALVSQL

Row | Compound | improvement of Ki/affinity relative to MTDIA for HpMTAN (HpMTAN; compared with MTDIA) [fold] | improvement of Ki relative to MTDIA for SaMTAN (SaMTAN) [fold] | Ki (HpMTAN; read-out: Ki (dissociation constant) for HpMTAN)
1 | Nc1ncnc2c(CN3C[C@H](CSCCOCCO)[C@@H](O)C3)c[nH]c12 [Compound 2] | 14 | 81 | –
2 | CSC[C@H]1CN(Cc2c[nH]c3c(N)ncnc23)C[C@@H]1O [MTDIA, Methylthio-DADMe-Immucillin-A] | – | – | 1 nM and 1.25 nM
